# Experimental data published in patent US10189826B2, “Heterocyclic compounds and methods of use” (Medivation Technologies LLC, priority 2015, dated 2019).
# Experiments:
# Type in all cases: cell-based
# [1] = tested on: SREBP2 cleavage in HEPG2 cells; assay: SREBP2 cleavage in HEPG2 cells (Western blot normalized to actin); conditions: 20 μM, 1 day, DMEM without FBS
# Description: Average SREBP2 cleavage in HEPG2 cells was measured in the presence of compounds disclosed in Table 1. HepG2 cells were seeded at 500,000 cells per well in 6-well plates in DMEM supplemented with 10% FBS. After 2 days, cells were treated with compounds (20 μM) for 1 day in DMEM without FBS. Western blots were normalized with respect to actin.
# HepG2 cells = assay: Cell viability in HepG2 cells (MTS); conditions: 20 μM, 3 days, DMEM without FBS
# Description: For viability measurements, HepG2 cells were seeded at 5,000 cells per well in 96-well plates in DMEM supplemented with 10% FBS. After 1 day in culture, cells were treated with compounds (20 μM) for 3 days in DMEM without FBS. Viability was measured by MTS. Treatment with compounds was carried out in medium without FBS, and viability was measured by MTS.
# [2] = tested on: SREBP-2 transcriptional activity (SREBP2 cleavage) in HepG2_LSSprom cells; assay: Luciferase reporter driven by a SREBP-2 specific promoter in HepG2_LSSprom cells; conditions: 5 μM, HepG2_LSSprom cells, medium without FBS
# Method in brief: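 HepG2_LSSprom cells dosed at 0.625-10 μM in serum-free medium for 6 h (or 24 h), then luciferase luminescence read. Signal normalized to vehicle (100%); IC50 by four-parameter nonlinear fit; five independent experiments, triplicate wells.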
# HepG2_LSSprom cells = assay: Cytotoxicity assay (LDH release) in HepG2_LSSprom cells; conditions: 5 μM, LDH release relative to lysis control
# Method in brief: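 HepG2_LSSprom cells exposed to compound at 0.625–10 μM in serum-free medium for 6 h or 24 h. Medium LDH measured colorimetrically at 490 nm; release expressed as % of lysis control after vehicle subtraction, negatives set to 0; five independent experiments, triplicate wells, mean±SEM.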
SMILES,"Average SREBP2 cleavage (% Inhibition, n = 3) [1] [% Inhibition]","Average Viability (% Inhibition, n = 3) (HepG2 cells) [% Inhibition]",SREBP2 Cleavage (5 μM) (% Inh) [2] [% Inh],Cytotoxicity (5 μM) % (HepG2_LSSprom cells) [%]
"CCCc1cc(-c2nc(-c3ccc(C(=O)N(C)C)cc3)cs2)ccn1 [Compound 2, N,N-dimethyl-4-[2-(2-propylpyridin-4-yl)-1,3-thiazol-4-yl]benzamide]",73.85,30.73,–,–
"CCCc1cc(-c2nc(-c3ccc(C(N)=O)cc3)cs2)ccn1 [Compound 3, 4-[2-(2-propylpyridin-4-yl)-1,3-thiazol-4-yl]benzamide]",12.18,19.52,–,–
"CC(C)(C)c1cc(-c2nc(-c3ccc(C(=O)N4CCCCC4)cc3Cl)cs2)ccn1 [Compound 5, 2-tert-butyl-4-{4-[2-chloro-4-(piperidine-1-carbonyl)phenyl]-1,3-thiazol-2-yl}pyridine]",–,–,71,4
"CN(C)C(=O)c1ccc(-c2csc(-c3cccc4[nH]ccc34)n2)c(Cl)c1 [Compound 6, 3-chloro-4-[2-(1H-indol-4-yl)-1,3-thiazol-4-yl]-N,N-dimethylbenzamide]",–,–,41,0
"CN(C)C(=O)c1ccc(-c2csc(-c3ccnc(N4CCCCC4)c3)n2)c(Cl)c1 [Compound 9, 3-chloro-N,N-dimethyl-4-{2-[2-(piperidin-1-yl)pyridin-4-yl]-1,3-thiazol-4-yl}benzamide]",–,–,52,1
